Assay results published in patent US10533034B2, “Human iNKT cell activation using glycolipids” (ACADEMIA SINICA, priority 2014, dated 2020).

Experiments:
[1] = system: iNKT TCR of DN3A4-1.2 Vα14+ iNKT hybridoma cells; experiment: Binding avidity of mCD1d-loaded glycolipids to Vα14+ iNKT cells (ternary interaction); parameters: species or system mouse
Protocol: (3A) DN3A4-1.2 Vα14+ iNKT hybridoma cells and (3B) 7DW8-5-expanded Vα24^+ iNKT cells were incubated with various concentrations of the indicated dimeric mCD d-glycolipid and hCD1d-glycolipid complexes for 30 min at 4° C., respectively. The level of bound complexes at the indicated concentration was detected by anti-mIgG1 secondary antibody and analyzed by flow cytometry. The relationship between the binding percentage and the concentration of CD1ddi-glycolipids complex was plotted in mice (3A) and humans (3B). KD values in mice (3C) and humans (3D) were calculated from Scatchard transformation of the plot (3A) and 3B), respectively. Assay was performed in duplicates.
Briefly, murine CD1d:Ig dimer (BD Biosciences PharMingen, San Diego, Calif.) was loaded with glycolipids at a molar ratio of 1:10 or vehicle for overnight at 37° C. Murine 1.2 Vα14+ iNKT cells were incubated with various doses of dimer-glycolipid complex in buffer containing azide (0.05%) for 30 min at 4° C. These cells were then stained with anti-mouse IgG1-PE mAb (A85-1) for another 30 min at 4° C., followed by washing, fixation with 4% paraformaldehyde (PFA), and the bound mCD1d dimer complexes were detected by flow cytometry. The binding curve and linear fit of the Scatchard transformation were plotted by Graphpad Prism software.
(§1) Next, we measured the ternary interaction between CD1d-glcolipid complex and the iNKT TCR in mice and humans. Different concentrations of mCD1d^di-glycolipid and hCD1d^di-glycolipid complexes were incubated with fixed amounts of DN3A4-1.2 murine iNKT hybridoma cells and human Vα24+/Vβ11^+ iNKT cells, respectively. The level of bound complexes at the indicated concentration was detected by anti-mIgG1 secondary antibody and analyzed by flow cytometry (FIGS. 3A and 3B). The KD of the ternary complex was calculated from the Scatchard transformation of the plots in FIGS. 3A and 3B using GraphPad Prism software. […] This was consistent with the observation that higher percentages of C1-pulsed splenocytes were stained by the mCD1d-7DW8-5 complex (36.2±5.0%) than mCD1d-7DW8-5-Glc complex (17.1±0.8%) (FIG. 11).

Vα24+/Vβ11+ iNKT TCR = Vα24+/Vβ11+ iNKT TCR (Homo sapiens, UniProt A0A075B6N4+A0A0B4J240+P15813); experiment: Binding avidity of hCD1d-loaded glycolipids with Vα24+ iNKT cells (ternary interaction); details: for Kd: in complex with hCD1d, Scatchard transformation, read-out: KD of ternary complex, hCD1d-glycolipid toward Vα24+/Vβ11+ iNKT TCR
Protocol: as §1, with “(3A) DN3A4-1.2 Vα14+ iNKT hybridoma cells and (3B) 7DW8-5-expanded Vα24^+ iNKT cells were incubated with various concentrations of the indicated dimeric mCD d-glycolipid and hCD1d-glycolipid complexes for 30 min at 4° C., respectively. The level of bound complexes at the indicated concentration was detected by anti-mIgG1 secondary antibody and analyzed by flow cytometry. The relationship between the binding percentage and the concentration of CD1ddi-glycolipids complex was plotted in mice (3A) and humans (3B). KD values in mice (3C) and humans (3D) were calculated from Scatchard transformation of the plot (3A) and 3B), respectively. Assay was performed in duplicates. Binding avidity of human CD1d-glycolipid complexes to Vα24^+ iNKT cells expanded by 7DW8-5 at 100 ng/ml was determined as described previously.^19 Next,” for “Next,”

[2] = system: B6 Jα18 KO mice splenocytes; experiment: FACS analyses of Jα18 KO mouse immune cells after glycolipid stimulation; format: in vivo; details: 1 μg/mouse i.v.; 3 days
Protocol: B6 Jα18 KO mice treated with the indicated glycolipid (1 μg/mouse) or vehicle (% DMSO in PBS) were sacrificed at 72 hr post-injection and their splenocytes were subjected to FACS analysis. (9A) The total splenocytes, (9B) total CD11Chi cells, (9C) CD11Chi/CD80+ cells, (9D) CD11Chi/CD86+ cells, (9E) CD4^+ T cells and (9F) CD8^+ T cells (student t test: *, p<0.05, as compared to D).
B6 WT or Jα18 KO mice treated with specific glycolipid (1 μg/mouse) or vehicle (1% DMSO in PBS) were sacrificed at 72 hr post-injection and their spleens were harvested. After pressing spleens through 70 um strainer and lysis of erythrocytes, the nucleated cells were resuspended in PBS buffer containing azide (0.05%) and stained with antibodies recognizing the indicated cell surface antigens for 30 min at 4° C. After washing, the splenocytes were subjected to FACS analysis. The antibodies against CD3, CD4, CD8α, CD11c, CD80, and CD86 were obtained from BD Bioscience-Pharmingen.
Unexpectedly, we also observed that 7DW8-5-Glc induced chemokines in Jα18 KO mice (FIG. 7).

Chain of Vα24+/Vβ11+ iNKT TCR (P01848 whole entry): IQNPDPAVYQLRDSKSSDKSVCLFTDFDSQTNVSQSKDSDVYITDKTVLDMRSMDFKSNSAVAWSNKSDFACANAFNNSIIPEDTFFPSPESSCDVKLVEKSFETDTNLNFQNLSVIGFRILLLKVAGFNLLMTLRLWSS
Chain of Vα24+/Vβ11+ iNKT TCR (A0A075B6N4 22-114): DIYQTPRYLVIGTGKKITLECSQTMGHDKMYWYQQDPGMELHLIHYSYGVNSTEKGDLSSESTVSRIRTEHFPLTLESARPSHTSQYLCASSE
Chain of Vα24+/Vβ11+ iNKT TCR (P61769 21-119, further chain): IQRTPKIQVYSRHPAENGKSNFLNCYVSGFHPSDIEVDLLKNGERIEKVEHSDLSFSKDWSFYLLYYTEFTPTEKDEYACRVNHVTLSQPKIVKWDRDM
Chain of Vα24+/Vβ11+ iNKT TCR (A0A0B4J240 22-114): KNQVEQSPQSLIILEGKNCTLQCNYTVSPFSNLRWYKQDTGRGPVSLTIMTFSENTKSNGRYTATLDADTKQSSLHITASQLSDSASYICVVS
Chain of Vα24+/Vβ11+ iNKT TCR (P15813 20-301): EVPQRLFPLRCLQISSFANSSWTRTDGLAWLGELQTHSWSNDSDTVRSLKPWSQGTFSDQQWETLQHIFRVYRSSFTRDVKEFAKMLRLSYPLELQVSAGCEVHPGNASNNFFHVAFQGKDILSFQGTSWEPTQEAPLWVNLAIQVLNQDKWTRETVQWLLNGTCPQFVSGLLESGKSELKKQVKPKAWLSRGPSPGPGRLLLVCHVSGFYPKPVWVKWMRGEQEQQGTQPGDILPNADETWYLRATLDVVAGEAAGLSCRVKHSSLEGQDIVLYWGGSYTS

Structure (SMILES) | fold stronger interaction with iNKT TCR than mCD1d-7DW8-5-Glc complex ([1]; mCD1d complex) [fold] | Kd (Vα24+/Vβ11+ iNKT TCR) [nM] | total splenocytes, CD4+ T and CD8+ T cells in Jα18 KO mice [2] | expansion/activation of CD11chi monocyte-derived DCs in Jα18 KO mice [2] | staining of murine iNKT cells with CD1d-glycolipid dimer [1] | staining of human iNKT cells with CD1d-glycolipid dimer (Vα24+/Vβ11+ iNKT TCR)
CCCCCCCCCCCCCC[C@@H](O)[C@@H](O)[C@H](CO[C@H]1O[C@H](CO)[C@H](O)[C@H](O)[C@H]1O)NC(=O)CCCCCCCCCCc1ccc(F)cc1 [Compound 7DW8-5, reference compound] | ~10 | 0.777 ± 0.022 | No significant differences |  |  | 
CC[C@@H](O)[C@@H](O)[C@H](CO[C@H]1OC(CO)[C@@H](O)C(O)C1O)NC(=O)Cc1ccc(F)cc1 (some centres unmarked) [Compound 7DW8-5-Glc] |  | 0.481 ± 0.008 | No significant differences | significantly expanded and activated |  | 
CCCCCCCCCCCCCC[C@@H](O)[C@@H](O)[C@H](CO[C@H]1O[C@H](CO)[C@@H](O)[C@H](O)[C@@H]1O)NC(=O)CCCCCCCCCCc1ccc(F)cc1 [Compound 7DW8-5-Man] |  |  |  |  | lack of staining | lack of staining
